Measurements: the supplement of paper PMC10949913

Key:
Test in all cases: area under concentration-response curve (viability) (AUC (a.u.)); higher = less active
Details in all cases: 48 h
NCI-H295R = system: NCI-H295R
Procedure, shortened: (§1)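 Three adrenocortical carcinoma cell lines were plated in 1,536-well plates at 500–1,000 cells/well in 5 µL medium, and 23 nL of each library compound was added at 11 concentrations. After 48 h, CellTiter-Glo was applied for 15 minutes at room temperature before luminescence was read. Each plate's signals were normalised to vehicle and empty-well controls. AC50 and area under the curve were taken from fitted concentration-response curves, with only inhibitory or non-responding curve classes retained.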

CU-ACC2 = system: CU-ACC2
Procedure, shortened: as §1

CU-ACC1 = system: CU-ACC1
Procedure, shortened: as §1

Compound	area under concentration-response curve (NCI-H295R)	area under concentration-response curve (CU-ACC2)	area under concentration-response curve (CU-ACC1)
CC(C)C(=O)Nc1ccc([N+](=O)[O-])c(C(F)(F)F)c1	570	627	551
Cn1cnc(N)c2ncnc1-2	448	467	438
COc1ccc2c(OCc3nnc4ccc(-c5ccccc5)nn34)ccnc2c1	589	609	520
C\C1=C(\SSC1=S)C2=CN=CC=N2	569	618	524
O=C(NCc1ccncc1)C12C[C@H]3C[C@@H](C1)CC(c1ccc(Cl)cc1)(C3)C2	468	576	486
O=P1(N(CCCl)CCCl)NCCCO1 (configuration not stated)	526	578	534
S=C1N\C=N/C2=C1[NH]C=N2	495	518	438
CN(C)/N=N/c1nc[nH]c1C(N)=O	481	547	514
CCOC(=O)C/1=C(C)/NC(=S)NC1C2=CC=CC(=C2)O (configuration not stated)	526	545	498
CC1COC2(CCN(CC2)C/3=N/C(=O)C4=CC(=CC(=C4S3)[N+]([O-])=O)C(F)(F)F)O1 (configuration not stated)	462	472	416
Cc1cc(C)c(/C=C2\C(=O)Nc3ccccc32)[nH]1	532	559	513
CN1C(=O)N(c2cc(Cl)cc(Cl)c2)C(=O)[C@]12CN(Cc1cc(C(=O)O)cs1)C[C@H]2c1ccc(C#N)cc1	404	420	401
COC/1=C/C=C2\C(=C/C1=O)[C@H](CCC3=CC(=C(OC)C(=C23)OC)OC)NC(C)=O	480	548	536
O=C1N\C=N/C2=C1C=N[NH]2	557	531	522
CCCC\1=C(/CNC(=O)C2=CC(=CC3=C2C=N[N]3C(C)C)C4=CC=C(N=C4)N5CCN(CC5)C(C)C)C(=O)NC(=C1)\C	472	485	379
CC(C)C[C@@H]1NC(=O)[C@@H](C(C)C)NC(=O)[C@@H]2CCCN2C(=O)[C@@H](CC(=O)O)NC(=O)[C@@H](Cc2c[nH]c3ccccc23)NC1=O	550	604	489
N[C@@H]1CONC1=O	559	497	533
COc1cc(SC)ccc1C(=O)N1CCC(Cc2ccccc2)CC1	538	501	522
OC[C@H]1O[C@@H](O[C@@H]2[C@@H](CO)O[C@](O)(CO)[C@H]2O)[C@H](O)[C@@H](O)[C@H]1O	532	569	508
Cc1cc(O)c2c(c1)C(=O)c1cc(O)cc(O)c1C2=O	498	521	471
CC1(C)CCC(=C(CN2CCN(CC2)C3=CC=C(C=C3)C(=O)N[S+]([O-])(=O)C4=CC(=C(N[C@H](CCN5CCOCC5)CSC6=CC=CC=C6)C=C4)[S+]([O-])(=O)C(F)(F)F)\C1)/C7=CC=C(Cl)C=C7	463	373	439
CN1N(C2=CC=CC=C2)C(=O)C(=C1/C3=CC=CC=C3)/C(=O)C4=CC=C(C)C(=C4N)C5=CC=C6N=C(C)C=CC6=C5	553	634	531
C[S+](=O)([O-])c1ccc(-c2nnc(/C=C/c3nnc(-c4ccc(C#N)cc4)o3)n2-c2ccccc2Cl)nc1	524	603	537
CN1C[C@@H]2c3ccccc3Oc3ccc(Cl)cc3[C@H]2C1	554	525	553
Cc1cc(SCc2sc(-c3ccc(C(F)(F)F)c(F)c3)nc2C)ccc1OCC(=O)O	565	493	539

Compound	area under concentration-response curve (NCI-H295R)	area under concentration-response curve (CU-ACC2)	area under concentration-response curve (CU-ACC1)
C[C@@H]1CC[C@@]2(OC1)OC1CC3C4CC=C5CC(O)CCC5(C)C4CCC3(C)C1[C@@H]2C (some centres not stated)	465	527	470
C=CC(=O)N[C@H]1CCOC[C@H]1Nc1ncc2cc(-c3c(Cl)c(OC)cc(OC)c3Cl)ccc2n1	453	554	458
c1ccc2c(CN3CCNCC3)cccc2c1	580	647	525
Cc1noc(-c2ccc(CSCCC(=O)O)cc2)c1NC(=O)OC(C)c1ccccc1Cl (configuration not stated)	505	557	469
COc1ccc(COc2cc3oc(=O)c4cc(C(C)O)ccc4c3cc2OC)cc1 (configuration not stated)	466	506	356
C\C1=C(/C)C(=O)\C(=C(\C)C1=O)C(CCCCCC(O)=O)C2=CC=CC=C2 (configuration not stated)	550	613	545
CC(C)C[C@H](CN)CC(=O)O	545	595	474
O=C(O)c1cccc(-c2noc(-c3ccccc3F)n2)c1	451	559	477
COc1cc2ncnc(Nc3cccc(Br)c3)c2cc1OC	527	583	395
CCOc1cc(C(=O)Nc2ccc(Cl)c(-c3nc4ccccc4[nH]3)c2)cc(OCC)c1OCC	549	618	477
COC1=CC(=CC(=C1CN(C)C)OC)\C2=C\N(C)C(=O)C3=C2C=CN=C3	479	578	500
Cc1n[nH]c2ncc(C(=O)N3CCC[C@H]3c3ccc(Cl)cc3)cc12	503	540	414
O=C1\C=C(OC2=C(C=CC=C12)C3=CC=CC4=C3SC5=C4C=CC=C5)\N6CCOCC6	497	557	374
CC(C)C/1=C(NC2=C(C=N[N]2C1=O)C#N)\C3=CC=CC=C3	480	580	497
CN1C(=O)CC[S+](=O)([O-])C1c1ccc(Cl)cc1 (configuration not stated)	572	534	553
CC(C)(Oc1ccc(C2CC2(Cl)Cl)cc1)C(=O)O (configuration not stated)	526	483	502
CC(C)(C)OC(=O)N[C@H]1CCCCC/C=C\[C@@H]2C[C@@]2(C(=O)N[S+](=O)([O-])C2CC2)NC(=O)[C@@H]2C[C@@H](OC(=O)N3Cc4cccc(F)c4C3)CN2C1=O	472	503	414
CC(C)(C)Sc1c(CC(C)(C)C(=O)O)n(Cc2ccc(Cl)cc2)c2ccc(OCc3ccc4ccccc4n3)cc12	554	624	578
O=C1CC[C@@]2(O)[C@H]3Cc4ccc(O)c5c4[C@@]2(CCN3CC2CC2)[C@H]1O5	559	623	413
Cc1ccc(/C=N/NC(=O)c2ccccc2Oc2ccccc2)o1	421	491	440
O=C1NC(O)CCN1[C@@H]1O[C@H](CO)[C@@H](O)[C@H]1O (some centres not stated)	585	646	539
COC1(C[S+]([O-])c2ccccc2)CCN(CCc2c[nH]c3ccc(F)cc23)CC1 (configuration not stated)	493	469	477
O=C1[O][Pt]2([NH]C3CCCCC3[NH]2)[O]C1=O (configuration not stated)	565	631	564
Cc1ccc(NC(=O)Nc2nnc(Sc3ncnc4cc(OCCCN5CCOCC5)ccc34)s2)cc1	511	583	521
